Data as given in the supplement of paper PMC10307832.

What follows are cell lines tested with Cc1nc(NC(=O)N2CCC[C@H]2C(N)=O)sc1-c1ccnc(C(C)(C)C(F)(F)F)c1 [Alpelisib] + C[C@@H](Oc1cc(-c2cnn(C3CCNCC3)c2)cnc1N)c1c(Cl)ccc(F)c1Cl [Crizotinib] (partner 1 µM) (assay: relative viability (nuclei count vs DMSO), 5 days (fraction); higher = more cells survive). Details: first compound 4 µM.
How it was run: (§1)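 Lung cancer cell lines in 1536-well plates were dosed by pin tool the day after seeding, either with one drug alone or with a fixed anchor-drug dose plus five library-drug doses (not always all listed) in √10 steps. After 5 days, cells were fixed and their nuclei stained in one step (final 0.05% Triton X-100, 1% formaldehyde, 1 ug/ml Hoechst), then counted on 4× images. Relative viability is the nuclei count in treated wells divided by that in vehicle wells. Values are medians of duplicate plates.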

Point of comparison: IA-LM, relative viability 0.818. Against it:
- EBC-1 — lower, 0.177
- A549 — lower, 0.405

These cell lines were tested with Cc1nc(NC(=O)N2CCC[C@H]2C(N)=O)sc1-c1ccnc(C(C)(C)C(F)(F)F)c1 [Alpelisib] + Cc1nc(Nc2ncc(C(=O)Nc3c(C)cccc3Cl)s2)cc(N2CCN(CCO)CC2)n1 [Dasatinib] (partner 0.075 µM) in the same assay as above. Details: first compound 0.04 µM.
How it was run: as §1

Point of comparison: PC-14, relative viability 0.256. Against it:
- NCI-H2126 — higher, 0.599
- EPLC-272H — higher, 0.313
- NCI-H1755 — higher, 0.382
- NCI-H2023 — higher, 0.484
- NCI-H1623 — higher, 0.528
- NCI-H1650 — higher, 0.316
- NCI-H1793 — higher, 0.299
- NCI-H2342 — higher, 0.327
- H3255 — higher, 0.403
- NCI-H1975 — higher, 0.322
- NCI-H1437 — higher, 0.368
- HOP-62 — higher, 0.608
- BEN — higher, 0.318
- LOU-NH91 — higher, 0.478
- NCI-H661 — higher, 0.845
- NCI-H1651 — higher, 0.357
- PC-3 [JPC-3] — higher, 0.948
- SW 1573 — higher, 0.438
- LK-2 — higher, 0.327
- NCI-H2405 — lower, 0.208
- NCI-H1993 — higher, 0.532
- ChaGo-K-1 — higher, 0.546
- NCI-H1355 — higher, 0.708
- HCC-366 — higher, 0.556
- NCI-H1915 — higher, 0.29
- ABC-1 — higher, 0.637
- NCI-H522 — higher, 0.952
- NCI-H1395 — higher, 0.461
- NCI-H727 — higher, 0.424
- SW 900 — higher, 0.534

Same assay, conditions: first compound 0.1265 µM

Point of comparison: NCI-H1793, relative viability 0.379. Against it:
- NCI-H2126 — higher, 0.564
- EPLC-272H — lower, 0.281
- NCI-H1755 — higher, 0.415
- NCI-H2023 — higher, 0.537
- NCI-H1623 — higher, 0.496
- NCI-H1650 — lower, 0.309
- NCI-H2342 — lower, 0.313
- H3255 — lower, 0.345
- NCI-H1975 — lower, 0.309
- PC-14 — lower, 0.243
- NCI-H1437 — lower, 0.338
- HOP-62 — higher, 0.598
- BEN — lower, 0.23
- LOU-NH91 — higher, 0.482
- NCI-H661 — higher, 0.745
- NCI-H1651 — higher, 0.463
- PC-3 [JPC-3] — higher, 0.928
- SW 1573 — higher, 0.458
- LK-2 — lower, 0.287
- NCI-H2405 — lower, 0.191
- NCI-H1993 — higher, 0.469
- ChaGo-K-1 — higher, 0.592
- NCI-H1355 — higher, 0.551
- HCC-366 — higher, 0.596
- NCI-H1915 — lower, 0.28
- ABC-1 — higher, 0.495
- NCI-H522 — higher, 0.772
- NCI-H1395 — lower, 0.376
- NCI-H727 — lower, 0.326
- SW 900 — higher, 0.58

Same assay, conditions: first compound 0.4 µM

Point of comparison: H3255, relative viability 0.363. Against it:
- NCI-H2126 — higher, 0.507
- EPLC-272H — lower, 0.219
- NCI-H1755 — higher, 0.418
- NCI-H2023 — higher, 0.483
- NCI-H1623 — higher, 0.513
- NCI-H1650 — lower, 0.322
- NCI-H1793 — higher, 0.525
- NCI-H2342 — lower, 0.306
- NCI-H1975 — lower, 0.329
- PC-14 — lower, 0.23
- NCI-H1437 — lower, 0.358
- HOP-62 — higher, 0.755
- BEN — higher, 0.38
- LOU-NH91 — higher, 0.482
- NCI-H661 — higher, 0.8
- NCI-H1651 — higher, 0.445
- PC-3 [JPC-3] — higher, 0.993
- SW 1573 — higher, 0.672
- LK-2 — lower, 0.257
- NCI-H2405 — lower, 0.216
- NCI-H1993 — higher, 0.508
- ChaGo-K-1 — higher, 0.547
- NCI-H1355 — higher, 0.699
- HCC-366 — higher, 0.427
- NCI-H1915 — lower, 0.313
- ABC-1 — higher, 0.823
- NCI-H522 — higher, 0.786
- NCI-H1395 — higher, 0.457
- NCI-H727 — higher, 0.476
- SW 900 — higher, 0.612

Same assay, conditions: first compound 1.265 µM

Point of comparison: EPLC-272H, relative viability 0.201. Against it:
- NCI-H2126 — higher, 0.354
- NCI-H1755 — higher, 0.327
- NCI-H2023 — higher, 0.244
- NCI-H1623 — higher, 0.414
- NCI-H1650 — higher, 0.257
- NCI-H1793 — higher, 0.356
- NCI-H2342 — higher, 0.269
- H3255 — higher, 0.315
- NCI-H1975 — lower, 0.176
- PC-14 — higher, 0.221
- NCI-H1437 — higher, 0.309
- HOP-62 — higher, 0.539
- BEN — higher, 0.333
- LOU-NH91 — higher, 0.452
- NCI-H661 — higher, 0.569
- NCI-H1651 — higher, 0.412
- PC-3 [JPC-3] — higher, 0.903
- SW 1573 — higher, 0.364
- LK-2 — lower, 0.185
- NCI-H2405 — lower, 0.19
- NCI-H1993 — higher, 0.454
- ChaGo-K-1 — higher, 0.487
- NCI-H1355 — higher, 0.434
- HCC-366 — higher, 0.34
- NCI-H1915 — higher, 0.268
- ABC-1 — higher, 0.484
- NCI-H522 — higher, 0.709
- NCI-H1395 — higher, 0.356
- NCI-H727 — higher, 0.313
- SW 900 — higher, 0.578

Same assay, conditions: first compound 4 µM

Point of comparison: NCI-H1395, relative viability 0.394. Against it:
- NCI-H2126 — lower, 0.307
- EPLC-272H — lower, 0.202
- NCI-H1755 — lower, 0.228
- NCI-H2023 — lower, 0.304
- NCI-H1623 — lower, 0.353
- NCI-H1650 — lower, 0.271
- NCI-H1793 — lower, 0.351
- NCI-H2342 — lower, 0.272
- H3255 — lower, 0.256
- NCI-H1975 — lower, 0.112
- PC-14 — lower, 0.202
- NCI-H1437 — lower, 0.342
- HOP-62 — higher, 0.531
- BEN — lower, 0.29
- LOU-NH91 — lower, 0.34
- NCI-H661 — higher, 0.526
- NCI-H1651 — lower, 0.293
- PC-3 [JPC-3] — higher, 0.907
- SW 1573 — lower, 0.202
- LK-2 — lower, 0.186
- NCI-H2405 — lower, 0.197
- NCI-H1993 — higher, 0.569
- ChaGo-K-1 — higher, 0.452
- NCI-H1355 — higher, 0.443
- HCC-366 — lower, 0.207
- NCI-H1915 — lower, 0.276
- ABC-1 — lower, 0.386
- NCI-H522 — higher, 0.647
- NCI-H727 — lower, 0.272
- SW 900 — higher, 0.518
